Measurements: PubChem BioAssay (NCI)
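Dose response: 5 concentrations. Exposure: 48 h. Format: 96-well plates. Endpoint: linear interpolation; highest concentration if not reached. Abbreviation: GI50, concentration required for 50% inhibition of growth. TGI: concentration producing complete growth inhibition.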

How the values were obtained:
Test in all cases: growth of human tumour cells (NCI), 48 h
[1] = test system: 786-0 renal
[2] = test system: A498 renal
[3] = test system: A549 NSCLC
[4] = test system: ACHN renal
[5] = test system: BT-549 breast
[6] = test system: CAKI-1 renal
[7] = test system: CCRF-CEM leukemia
[8] = test system: COLO 205 colon
[9] = test system: DU-145 prostate
[10] = test system: EKVX NSCLC
[11] = test system: HCC-2998 colon
[12] = test system: HCT-116 colon
[13] = test system: HCT-15 colon
[14] = test system: HL-60(TB) leukemia
[15] = test system: HOP-62 NSCLC
[16] = test system: HOP-92 NSCLC
[17] = test system: HS 578T breast
[18] = test system: HT29 colon
[19] = test system: IGROV1 ovarian
[20] = test system: K-562 leukemia
[21] = test system: KM12 colon
[22] = test system: LOX IMVI melanoma
[23] = test system: M14 melanoma
[24] = test system: MALME-3M melanoma
[25] = test system: MCF7 breast
[26] = test system: MDA-MB-231 breast
[27] = test system: MDA-MB-435
[28] = test system: MOLT-4 leukemia
[29] = test system: NCI-H226 lung
[30] = test system: NCI-H23 lung
[31] = test system: NCI-H460 lung
[32] = test system: NCI-H522 lung
[33] = test system: NCI/ADR-RES ovarian
[34] = test system: OVCAR-3 ovarian
[35] = test system: OVCAR-4 ovarian
[36] = test system: OVCAR-5 ovarian
[37] = test system: OVCAR-8 ovarian
[38] = test system: PC-3 prostate
[39] = test system: RPMI-8226 leukemia
[40] = test system: RXF 393 renal
[41] = test system: SF-268 CNS
[42] = test system: SF-295 CNS
[43] = test system: SF-539 CNS
[44] = test system: SK-MEL-2 melanoma
[45] = test system: SK-MEL-28 melanoma
[46] = test system: SK-MEL-5 melanoma
[47] = test system: SK-OV-3 ovarian
[48] = test system: SN12C renal
[49] = test system: SNB-19 CNS
[50] = test system: SNB-75 CNS
[51] = test system: SR leukemia
[52] = test system: SW-620 colon
[53] = test system: T-47D breast
[54] = test system: TK-10 renal
[55] = test system: U251 CNS
[56] = test system: UACC-257 melanoma
[57] = test system: UACC-62 melanoma
[58] = test system: UO-31 renal

C=C(C)[C@@H]1/C=C(/C(C)C)CC[C@@]2(C)OC2CC[C@H](C)CC1=O (stereo not given in full)
GI50 [1]: > 42.8 µM
TGI [1]: > 59.6 µM
GI50 [2]: 31.6 µM
TGI [2]: > 93.2 µM
GI50 [3]: 28.8 µM
TGI [3]: > 100 µM
GI50 [4]: 27.5 µM
TGI [4]: > 55 µM
GI50 [5]: 38.8 µM
TGI [5]: > 100 µM
GI50 [6]: 24.1 µM
TGI [6]: 53.8 µM
GI50 [7]: 20.3 µM
TGI [7]: 52.3 µM
GI50 [8]: 24.9 µM
TGI [8]: > 61 µM
GI50 [9]: 19.4 µM
TGI [9]: 36 µM
GI50 [10]: 52.1 µM
TGI [10]: > 100 µM
GI50 [11]: > 44.4 µM
TGI [11]: > 65.9 µM
GI50 [12]: 17.3 µM
TGI [12]: 31.7 µM
GI50 [13]: 38.6 µM
TGI [13]: > 68.6 µM
GI50 [14]: 25 µM
TGI [14]: 76.2 µM
GI50 [15]: 30.3 µM
TGI [15]: > 57.9 µM
GI50 [16]: 26.3 µM
TGI [16]: > 76.7 µM
GI50 [17]: 46 µM
TGI [17]: > 100 µM
GI50 [18]: 31.6 µM
TGI [18]: 98.8 µM
GI50 [19]: 24.7 µM
TGI [19]: > 63.3 µM
GI50 [20]: 19.7 µM
TGI [20]: 58.6 µM
GI50 [21]: 18.6 µM
TGI [21]: 39.7 µM
GI50 [22]: 22.4 µM
TGI [22]: > 57.7 µM
GI50 [23]: 30.8 µM
TGI [23]: > 62.8 µM
GI50 [24]: 35.3 µM
TGI [24]: > 100 µM
GI50 [25]: 27.7 µM
TGI [25]: > 63.8 µM
GI50 [26]: 19.3 µM
TGI [26]: 49.5 µM
GI50 [27]: 26.6 µM
TGI [27]: 71.6 µM
GI50 [28]: 16.3 µM
TGI [28]: 40.9 µM
GI50 [29]: > 38.8 µM
TGI [29]: > 66.9 µM
GI50 [30]: 21.2 µM
TGI [30]: 43.9 µM
GI50 [31]: 18.7 µM
TGI [31]: 37.7 µM
GI50 [32]: 31.2 µM
TGI [32]: > 93.5 µM
GI50 [33]: 25.4 µM
TGI [33]: 59.8 µM
GI50 [34]: 24.8 µM
TGI [34]: 66.1 µM
GI50 [35]: 73.8 µM
TGI [35]: > 100 µM
GI50 [36]: > 43.5 µM
TGI [36]: > 63.5 µM
GI50 [37]: 33.9 µM
TGI [37]: > 70.5 µM
GI50 [38]: 22.2 µM
TGI [38]: 54.3 µM
GI50 [39]: 20.1 µM
TGI [39]: 54.1 µM
GI50 [40]: 3.37 µM
TGI [40]: > 49.1 µM
GI50 [41]: 37.7 µM
TGI [41]: > 100 µM
GI50 [42]: 27.4 µM
TGI [42]: > 71.6 µM
GI50 [43]: 21.9 µM
TGI [43]: 42.7 µM
GI50 [44]: 52.1 µM
TGI [44]: > 100 µM
GI50 [45]: 59.3 µM
TGI [45]: > 100 µM
GI50 [46]: 19.4 µM
TGI [46]: 37.9 µM
GI50 [47]: > 100 µM
TGI [47]: > 100 µM
GI50 [48]: 21 µM
TGI [48]: 46 µM
GI50 [49]: 60 µM
TGI [49]: > 100 µM
GI50 [50]: > 100 µM
TGI [50]: > 100 µM
GI50 [51]: 2.18 µM
GI50 [52]: 25.4 µM
TGI [52]: 65.7 µM
GI50 [53]: 27.4 µM
TGI [53]: > 80.3 µM
GI50 [54]: 27.6 µM
TGI [54]: > 79.4 µM
GI50 [55]: 27.6 µM
TGI [55]: > 62.2 µM
GI50 [56]: 47.6 µM
TGI [56]: > 100 µM
GI50 [57]: > 100 µM
TGI [57]: > 100 µM
GI50 [58]: 23.2 µM
TGI [58]: > 55.7 µM
